Laboratory results as given in patent US20260265176A1, “SUBSTITUTED CYCLOHEXENE AND CYCLOHEXANE INHIBITORS OF ORNITHINE AMINOTRANSFERASE” (Northwestern University, priority 2023, published 2026).

What was measured:
Assay type in all cases: biochemical
hOAT [1] = target: T1, hOAT (Homo sapiens, UniProt P04181); experiment: Inactivation of hOAT, coupled enzyme assay (kinetic constants); conditions: for kinact / kinact/K1, hOAT / Ki: inactivation of hOAT; for Ki: read-out: K1, hOAT
T1 construct: made in house; host or cells: Escherichia coli BL21 (DE3)
T1 sequence (P04181 26-439): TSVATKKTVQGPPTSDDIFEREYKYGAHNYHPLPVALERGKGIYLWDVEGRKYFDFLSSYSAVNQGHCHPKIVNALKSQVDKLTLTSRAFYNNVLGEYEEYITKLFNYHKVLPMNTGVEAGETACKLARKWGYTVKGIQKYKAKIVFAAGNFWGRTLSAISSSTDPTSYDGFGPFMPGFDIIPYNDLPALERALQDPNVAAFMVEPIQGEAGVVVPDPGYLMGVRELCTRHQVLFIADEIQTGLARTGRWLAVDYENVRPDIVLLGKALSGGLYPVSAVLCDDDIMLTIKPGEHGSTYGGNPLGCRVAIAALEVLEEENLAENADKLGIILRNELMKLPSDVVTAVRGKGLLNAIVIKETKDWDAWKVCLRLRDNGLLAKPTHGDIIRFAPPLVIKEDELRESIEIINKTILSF
Protocol: (§1) Recombinant human brain γ-aminobutyric acid aminotransferase (hGABA-AT) was expressed and purified according to literature procedures with slight modifications.^26 Briefly, pelleted Expi293 cells were resuspended into buffer A containing 50 mM K4O7P2 pH 8.6, 300 mM NaCl, and 100 μM PLP. The suspension was lysed using four repeat cycles of sonication (10 s on, 10 s off, 20% amplitude) on ice followed by the addition of 12.5 mM MgCl, 125 μM CaCl, and 5 mg of lyophilized DNase I. The lysate incubated on ice for 60 minutes with periodic inversions followed by a two step centrifugation procedure to pellet cell debris. Step one included centrifugation at 18000 rpm for 60 minutes at 4° C. followed by the collection of supernatant and a secondary step at 20000 rpm for 45 minutes. The supernatant was collected, and the sample was loaded into a disposable 0.45 μm bottle-top vacuum filter system to remove remaining cell debris. The resulting sample was then loaded onto a Co^2+ immobilized metal affinity chromatography column pre-equilibrated with buffer A. The column was washed with 40 mL of buffer A before hGABA-AT was eluted using a step-wise elution gradient of buffer A supplemented with 200 mM imidazole. The step-wise gradient totaled 5 steps of increasing imidazole concentration (1 mM, 2 mM, 5 mM, 100 mM, 200 mM). Individual 4 mL fractions containing hGABA-AT were combined and concentrated to a volume of 3 mL using a 30000 Da molecular weight cutoff (MWCO) Amicon Ultra centrifugal filter device. For further purification, the sample was loaded onto a HiLoad Superdex-200PG column (16 mm×600 mm) pre-equilibrated with buffer A and subjected to size exclusion chromatography at a flow rate of 0.25 mL/min. PYCR1 was purified according to previously published protocols.^38 Coupled enzyme assays for hGABA-AT, hOAT, Ala-AT, and Asp-AT were carried out according to previous procedures.^26

hGABA-AT = target: T2, hGABA-AT (Homo sapiens, UniProt P80404); experiment: Inactivation of hGABA-AT, coupled enzyme assay (kinetic constants); conditions: for kinact/K1, hGABA-AT: inactivation of hGABA-AT, K1 and kinact not determinable
T2 construct: made in house; host or cells: Expi293 cells
T2 sequence (P80404 29-500): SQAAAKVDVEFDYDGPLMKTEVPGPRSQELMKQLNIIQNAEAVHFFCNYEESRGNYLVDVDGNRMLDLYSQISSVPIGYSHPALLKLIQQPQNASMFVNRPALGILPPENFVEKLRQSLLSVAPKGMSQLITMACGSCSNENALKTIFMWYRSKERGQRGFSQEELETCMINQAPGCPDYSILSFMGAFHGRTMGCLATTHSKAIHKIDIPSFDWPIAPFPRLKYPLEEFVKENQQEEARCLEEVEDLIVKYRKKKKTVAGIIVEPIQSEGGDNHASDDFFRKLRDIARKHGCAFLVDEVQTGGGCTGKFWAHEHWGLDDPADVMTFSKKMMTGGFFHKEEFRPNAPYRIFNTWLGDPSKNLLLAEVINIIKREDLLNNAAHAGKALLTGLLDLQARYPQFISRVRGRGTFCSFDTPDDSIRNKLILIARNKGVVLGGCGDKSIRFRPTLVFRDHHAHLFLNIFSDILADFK
Protocol: as §1

hOAT [2] = target: T1, hOAT; experiment: Time-dependent reactivation experiment (dialysis) of hOAT inactivated by 17
Protocol: Mass spectrometry, however, might differentiate those possibilities. To confirm irreversible inactivation of hOAT by 17, a time-dependent reactivation experiment (dialysis) was performed. […] Aliquots at different time intervals were collected and assayed to detect restored enzyme activity. […] It takes approximately 10 equiv of 17, however, to produce complete enzyme inactivation.
The dialysis experiment was conducted using previous protocols.^26,38

hOAT [3] = target: T1, hOAT; experiment: Partition ratio / turnover number by titration of hOAT with inactivator; conditions: for partition ratio: turnover number minus one
Excerpt: Determination of the Turnover Mechanism to Metabolites The partition ratio of an MBI is the ratio of compound that acts as a substrate relative to the compound that inactivates the enzyme. Ideally, plotting the enzyme activity remaining after inactivation versus equivalents of compound added will provide a straight line from 100 to 0% enzyme activity remaining. The x-intercept of this line would give the number of inactivator molecules required to inactivate a single enzyme active site (the turnover number). This number represents the total number of compound molecules that were engaged by the active site until the enzyme was inactivated. Of these compounds, only the final one will inactivate the enzyme, and the others will have been consumed as substrates. As a result, the partition ratio is the turnover number minus one (assuming a 1:1 stoichiometry of inactivator to enzyme in the inactivated complex).
The partition ratio of 17 was determined by titrating a known amount of hOAT with varying equivalents of inactivator (FIG. 7). The linear relationship of the remaining enzymatic activity was extrapolated to yield the exact number of equivalents of 17 to inactivate the enzyme completely. From this we determined the turnover number to be 4.27 and thus the partition ratio of 17 to be 3.27.
The turnover number for 17 was determined to be 2.2 by titrating a fixed amount of hOAT with varying equivalents of 17, measuring the remaining enzyme activities for the different equivalents of inhibitor, and employing the method of Pham et al.^32 (FIG. 24). The partition ratio, therefore, is 1.2.
The partition ratio was calculated using previous protocols.^26,28

hOAT [4] = target: T1, hOAT; experiment: Transient-state stopped-flow spectrophotometry of hOAT reacting with inactivator; conditions: hyperbolic fit of kobs vs inactivator concentration, hOAT 17 μM, 20° C.
Protocol: Vertical arrows indicate the sequence of the observed spectra after initiating the experiment. […] A sample of hOAT (17 μM) was mixed with 17 (0-11 mM) using a stopped-flow spectrophotometer, and the reaction was observed between 300 and 800 nm for 150 sec using CCD detection. Several representative spectra from the data set are shown here.
FIG. 16C depicts the dependence of observed rate constants on the concentration of [5]. Fitting to a rectangular hyperbolic function (kobs=klimit[5]/K[5]+[5] returned an observed limiting rate constant of 0.20±0.01 s^−1 and a dissociation constant for reversible formation of the external aldimine of 2.9±0.4 mM.
The data collected using stopped-flow spectrophotometry serves as additional evidence for the proposed mechanism. […]
The subsequent increase in absorbance at 325 nm would thus report the accumulation of both the turnover and inhibition products, with no difference in rates.
Transient-State Kinetic Characterization of hOAT with […]: A sample of hOAT (17 μM) was mixed with 17 (0-11 mM) at 20° C. using a rapid mixing stopped-flow spectrophotometer (TgK Scientific) equipped with charge-coupled device (CCD) detection, allowing for the collection time-resolved spectra. […] A reconstructed time zero point was included in the data and was obtained by adding the spectrum of the enzyme and the spectrum of the inhibitor when measured separately. […]

[5] = listed as (±) 22, hydrochloride
[6] = from turnover number/partition ratio study, FIG. 24

Row | SMILES | inhibition of hOAT (in words) (hOAT [1]; hydrochloride) | inhibition of hOAT (in words) (hOAT [1]; [5]) | inhibition of hGABA-AT (in words) (hGABA-AT; hydrochloride) | inhibition of hGABA-AT (in words) (hGABA-AT; [5]) | kinact (hOAT [1]) [s⁻¹] | kinact/K1, hOAT (hOAT [1]) [M⁻¹ s⁻¹] | Ki (hOAT [1]) [µM] | kinact/KI (hOAT [1]; read-out: overall efficiency (kinact/KI) against hOAT (converted)) [M⁻¹ s⁻¹] | enzymatic activity recovered after dialysis (hOAT [2]; 72 hours of dialysis, hOAT treated with 0.6-10 equivalents of 17) | equivalents needed to produce complete enzyme inactivation (hOAT [2]; hOAT) | share of compound undergoing turnover to a product and PMP (hOAT [3]; [6]) [%] | share of turnover resulting in inactivation (hOAT [3]; [6]) [%] | turnover number (hOAT [3]; linear extrapolation of remaining activity, FIG. 7) | turnover number (hOAT [3]; method of Pham et al., FIG. 24) | partition ratio (hOAT [3]; FIG. 7) | partition ratio (hOAT [3]; FIG. 24) | observed limiting rate constant (hOAT [4]) [s⁻¹] | Kd (hOAT [4]; read-out: dissociation constant for reversible formation of the external aldimine) [µM] | kinact/K1, hGABA-AT (hGABA-AT) [M⁻¹ s⁻¹] | kinact/KI, fold less effective than that of 17 for hOAT (hOAT [1]; relative to 17) [fold]
1 | Cl.N[C@@H]1C[C@H](C(=O)O)CC(F)(F)C1 (racemic) [(±)22, cis-5-Amino-3,3-difluorocyclohexane-1-carboxylic acid hydrochloride] | No inhibition up to 10 mM | little or no inhibitory effect | Weak reversible inhibition at 10 mM | little or no inhibitory effect | – | – | – | – | – | – | – | – | – | – | – | – | – | – | – | –
2 | Cl.N[C@H]1C=C(C(=O)O)CC(F)(F)C1 [Compound 17, (R)-3-amino-5,5-difluorocyclohex-1-ene-1-carboxylic acid hydrochloride] | – | – | – | – | 0.00467 | 17.3 | 270 ± 70 | 17.3 | No enzymatic activity was recovered | approximately 10 equiv | 55 | 45 | 4.27 | 2.2 | 3.27 | 1.2 | 0.20 ± 0.01 | 2900 ± 400 | 2.83 | –
3 | Cl.N[C@H]1CC(C(=O)O)=CC(F)(F)C1 [Compound 17a, (S)-5-amino-3,3-difluorocyclohex-1-ene-1-carboxylic acid hydrochloride] | – | – | – | – | 0.0025 | 1.83 | 1200 ± 400 | – | – | – | – | – | – | – | – | – | – | – | 2 | 10
